Data reported in US5298502A, “Method and composition for photodynamic treatment and detection of tumors” (priority 1991, dated 1994).

Experiments:
[1] = test system: DBA/2 Ha mice with SMT-F subcutaneous tumors; assay: Proto IX content of tissues of tumor-bearing mice fed the agent (Example 6); format: in vivo; settings: for concentration of Proto IX in tissue, Adrenal / concentration of Proto IX in tissue, Intestine / concentration of Proto IX in tissue, Kidneys / concentration of Proto IX in tissue, Liver / concentration of Proto IX in tissue, Tumor / Proto IX Mean Cps per gram, Intestine: 2000 ppm in feed; for Proto IX Mean Cps per gram, Adrenal / Proto IX Mean Cps per gram, Kidneys / Proto IX Mean Cps per gram, Liver / Proto IX Mean Cps per gram, Tumor / Weight of Tumor as excised: 2000 ppm in feed Days 2-10, sacrificed Day 10 (6j Day 7); for Proto IX Mean Cps per gram, Intestine: samples diluted with 3 parts basic acetone to one part sample
Method: In this Example the enzyme-inhibiting agents were added to the feed of tumor-bearing mice; for some of the mice, used as a control, no agent was added to the feed. The mice were then sacrificed and their kidneys, intestines, adrenal glands, liver and tumor were removed and analyzed for their content of Proto IX. The following enzyme-inhibiting agents were employed: [drawing 10]
More particularly, the mice were DBA/2 Ha mice which had been injected with SMT-F subcutaneous tumors on Day 0 in the right shoulder. The mice, individually housed, received untreated Purina Rodent Chow 5001 Mash on Day 1; thereafter on Days 2 through 10 the mice received the same Mash treated with 2000 ppm of the inhibiting agent being tested (or, for the controls, the same untreated Mash). The treatment of the Mash was effected by blending it with a small amount of an acetone solution of the agent to be tested. The mice were then sacrificed on Day 10, except for the mouse treated with the agent designated as 6j; the latter was sacrificed on Day 7. The tissues were refrigerated at 4° C. overnight, then blotted dry, and the fresh weight of each tissue sample was recorded. The tissues were then homogenized in 5 mL, or lo mL in the cases of intestines and liver, of acetone-0.1 N NH4 OH (9:I, v/v). The homogenates were then centrifuged at 1500 g and the supernatants were analyzed on a SPEX FAII2 spectrofluorometer; excitation 400 nm, emission 630 nm wavelengths, the optima for Proto IX. Proto IX accumulation was determined as CPS (fluorescent counts per second emitted) per gram of tissue. The results are tabulated below (results are averages for two mice for each treatment, except for treatments with agents 6f, 6h, 6i and 6j in each of which only one mouse was treated): […]

[2] = test system: HeLa cells; assay: Tetrapyrrole accumulation in treated HeLa cells (Example 1); format: cell-based, human; settings: 3 days in the dark
Method: HeLa cells (a human tumor cell line commonly employed for tumor research and obtained from the American Type Culture Collection), in logarithmic growth phase (having been cultured at 37° C. for five days in one-liter Falcon tissue culture flasks), were washed in phosphate buffered saline (PBS). A 0.25% solution of trypsin in PBS (2 mL) was added, and, after several minutes, the cells were gently removed from the flask and placed into 110 mL of a 25 mM solution of Hepes in Minimum Essential Medium (MEM) supplemented with 10% v/v inactivated calf serum, 1.1 mL of a 200 mM solution of glutamine in 0.85% saline solution, and 11,000 units of penicillin/11,000 mcg streptomycin.
Then, 5.0 mL aliquots of the resulting resuspended cell culture were each placed into a 50 mL Falcon tissue culture flask and (except for the control) mixed with the treating agent. The aliquots were then incubated in the dark at 37° C. for three days. The cells were then removed and extracted under green light in the following manner:
Cells were removed from the bottom of the flask with the addition of 0.8 mL of a 0.25% solution of trypsin in PBS. After 1 hour of incubation in the dark, cells and medium were removed from the flasks, placed into round bottom centrifuge tubes, and then subjected to two rounds of freeze-thaw conditions to disrupt the cells and allow for extraction.
Ten mL of basic acetone (90% acetone:10% of 0.1 N NH4 OH) was then added to each tube, and the tubes were centrifuged to remove protein and cell debris. Five mL of water was added to the supernatant, followed by 0.5 mL of a saturated aqueous solution of NaCl. The pH was then adjusted to 6.8 by the dropwise addition of 2 M KH2 PO4. The aqueous acetone extract was then loaded onto a C8 Baker Prep column. The columns were dried and then washed with 2 mL of water. The tetrapyrroles were eluted with 2×1.5 mL volumes of 90/10 CH3 OH/H2 O. Extracts were then quantified on a spectrofluorometer.
Agent A was supplied as a filter-sterilized 250 mM solution in water, pH 6.5. Agents B, C, D, and E were supplied as 50 mM solutions in acetone. Acetone was also added to the control to provide a concentration of 0.2% v/v therein. The amounts of the agents added to the cell cultures were such as to give the concentrations specified in the Table 1 below. The amounts of the tetrapyrrole protoporphyrin IX ("Proto IX") produced are shown in that Table.

[3] = test system: HeLa cells; assay: Growth inhibition and Proto IX accumulation in HeLa cells (Example 2); format: cell-based, human; settings: for Amount of Proto IX: average amount per 10^6 cells; for inhibition at 100 µM: 4 days in the dark
Method: HeLa cells, in logarithmic growth phase having been cultured for 6 days in six one-liter Falcon tissue culture flasks at 37° C.), were washed in phosphate buffered saline (PBS). A 0.25% solution of trypsin in PBS was added, and, after several minutes, the cells were gently removed and placed into 110 mL of a 25 mM solution of Hepes in Minimum Essential Medium (MEM), supplemented with 10% v/v inactivated calf serum, 1.1 mL of a 200 mM solution of glutamine in 0.85% saline solution, and 11,000 units of penicillin/11,000 mcg streptomycin.
Aliquots (5.0 mL each) of the resuspended cell culture were placed into 50 mL Falcon tissue culture flasks, with or without herbicide, and incubated in the dark at 37° C. for 4 days, the herbicide being added in dilute acetone solution as in Example 1. Acetone was also added to the controls to provide a concentration of acetone of 0.2% v/v therein. The amount of herbicide was such as to provide the concentrations specified in Table 2 below.
Extraction: The media from each of the flasks were placed in glass round bottom tubes, while the cells adhering to the bottom of the flasks were loosened by the addition of 0.5 mL of a 0.25% solution of trypsin in PBS, and after several minutes at 37° C., then washed from the flasks and recombined with their media. Aliquots of 100 μL were then removed from each cell suspension to determine cell density. The remaining 5.4 mL of cell suspension was then sonified for 30 minutes to disrupt the cells.
Ten mL of basic acetone (90% acetone:10% 0.1 N NH4 OH) was then added to each tube, and the tubes were centrifuged to remove protein and cell debris. Five mL of water was added to the supernatant, followed by 0.5 mL of a saturated aqueous solution of NaCl. The pH was then adjusted to 6.8 by the dropwise addition of 2 M KH2 PO4. The aqueous acetone extract was then loaded onto a C8 Baker Prep column. The columns were dried and then washed with 2 mL of water. The tetrapyrroles were eluted with 3 mL of 90/10 CH3 OH/H2 O. As in Example 1, all these extraction procedures were carried out substantially entirely under non-protoporphrin IX-exciting light (e.g. green light) or in the dark (e.g. in opaque covered containers). The fluorescence of the extracts was then determined on a SPEX spectrofluorometer. Protoporphyrin IX ("Proto IX") accumulation was quantified utilizing predetermined extinction coefficients.

[4] = test system: HeLa cells; assay: Proto IX in HeLa cells and culture medium, cell growth observations (Example 8); format: cell-based, human; settings: 100 μM agent, compared to the control; for inhibition at 100 µM: Homo sapiens, HeLa, read-out: inhibiting effect on cell growth (rough observations)
Method: In a manner similar to Examples 1 and 2, cultures of HeLa cells were incubated in the presence of 100 μM of various treating agents, listed below. The agent was added in dilute solution in dimethylsulfoxide (DMSO),and the controls contained 0.2% DMSO v/v. After such incubation the culture medium was poured off, removing it from the cells, the cells were loosened from the culture flasks by addition of 0.25% W/v trypsin Which remained in contact With the cells for 20 minutes at 37° C., after which a fluorometric medium was added to the flask. The fluorometric medium was the same as that described in Example 7 except that its pH was 6.5; this medium also acted as an extractant. The resulting extract was analyzed for proto IX content. The separated culture medium was also analyzed fluorometrically for Proto IX content. The pairs of percentages given, next to each treating agent, indicate the amount of Proto IX produced in the presence of that treating agent relative to the amount produced by the control in the same experiment; the first number of each pair relates to the concentration of Proto IX in the culture medium and the second number relates to the concentration in the cells. [drawing 12]

[5] = Homo sapiens, HeLa, 96 h, 100 μM agent

## CC(C)Oc1cc(-n2nc(C(C)(C)C)oc2=O)c(Cl)cc1Cl [Agent 6d]
[1]
  concentration of Proto IX in tissue, Adrenal: 4 ug of Proto IX per gram of tis
  concentration of Proto IX in tissue, Intestine: 51 ug of Proto IX per gram of tis
  concentration of Proto IX in tissue, Kidneys: 117 ug of Proto IX per gram of tis
  concentration of Proto IX in tissue, Liver: 14 ug of Proto IX per gram of tis
  concentration of Proto IX in tissue, Tumor: 18 ug of Proto IX per gram of tis
  Proto IX Mean Cps per gram, Adrenal: 443 Cps per gram × 10^3
  Proto IX Mean Cps per gram, Kidneys: 12865 Cps per gram × 10^3
  Proto IX Mean Cps per gram, Liver: 1581 Cps per gram × 10^3
  Proto IX Mean Cps per gram, Tumor: 2006 Cps per gram × 10^3
  Weight of Tumor as excised: 294 mg
  Proto IX Mean Cps per gram, Intestine: 5565 Cps per gram × 10^3

## CC(C)Oc1cc(-n2c(=O)n3n(c2=S)CCCC3)c(F)cc1Cl [Agent 6e]
[1]
  concentration of Proto IX in tissue, Adrenal: 12 ug of Proto IX per gram of tis
  concentration of Proto IX in tissue, Intestine: 19 ug of Proto IX per gram of tis
  concentration of Proto IX in tissue, Kidneys: 8 ug of Proto IX per gram of tis
  concentration of Proto IX in tissue, Liver: 8 ug of Proto IX per gram of tis
  concentration of Proto IX in tissue, Tumor: 8 ug of Proto IX per gram of tis
  Proto IX Mean Cps per gram, Adrenal: 1331 Cps per gram × 10^3
  Proto IX Mean Cps per gram, Kidneys: 915 Cps per gram × 10^3
  Proto IX Mean Cps per gram, Liver: 876 Cps per gram × 10^3
  Proto IX Mean Cps per gram, Tumor: 837 Cps per gram × 10^3
  Weight of Tumor as excised: 165 mg
  Proto IX Mean Cps per gram, Intestine: 2069 Cps per gram × 10^3

## NCC(=O)CCC(=O)O [Agent A, 5-amino levulinic acid, reference compound]
[2]; 5000 μM agent
  Amount of Proto IX: 4.2 pmol
  Fluorescence Emission cps 400/630: 41842 cps

## CCOC(=O)C(C)Oc1ccc(Oc2cc(-n3nc(C)n(C(F)F)c3=O)c(F)cc2Cl)cc1 (stereo not shown) [Agent C]
[3]; 1 μM agent
  Amount of Proto IX: 0.19 pmol
[3]; 10 μM agent
  Amount of Proto IX: 0.57 pmol
[3]; 100 μM agent
  Amount of Proto IX: 4.41 pmol
[3]; Homo sapiens, HeLa, 96 h, 1 μM agent, percent of control, read-out: Relative % proto IX
  activity at 1 µM: 86%
[3]; Homo sapiens, HeLa, 96 h, 10 μM agent, percent of control, read-out: Relative % proto IX
  activity at 10 µM: 259%
[3]; [5]
  inhibition at 100 µM: 52%
[3]; Homo sapiens, HeLa, 1 μM agent, negative values indicate that growth occurred
  inhibition at 1 µM: -26%
[3]; Homo sapiens, HeLa, 10 μM agent, negative values indicate that growth occurred
  inhibition at 10 µM: -15%
[2]; 100 μM agent
  Amount of Proto IX: 3.5 pmol
  Fluorescence Emission cps 400/630: 33477 cps

## C#CCN1C(=O)COc2cc(F)c(-n3ncc(=O)n(C)c3=O)cc21 [Agent D]
[2]; 100 μM agent
  Amount of Proto IX: 1.1 pmol
  Fluorescence Emission cps 400/630: 10551 cps

## Cn1c(=O)cnn(-c2ccc(Cl)cc2F)c1=O [Agent E]
[2]; 100 μM agent
  Amount of Proto IX: 0.9 pmol
  Fluorescence Emission cps 400/630: 8967 cps

## CC(C)Oc1cc(-n2nc(C(C)(C)C)oc2=O)c(Cl)cc1Cl [Agent F]
[3]; 100 μM agent
  Amount of Proto IX: 2.71 pmol
[3]; [5]
  inhibition at 100 µM: 106%

## C#CCOc1cc(N2C(=O)C(C)=C(C)C2=O)c(F)cc1Cl [Compound 8ab]
[4]
  effect on cell growth (rough observations): lethal

## C#CCOc1cc(N2C(=O)C3CCCCC3C2=O)c(F)cc1Cl (stereo not shown) [Compound 8ac]
[4]
  inhibition at 100 µM: 50%

## Cc1nc2ccccc2n1Cc1c(F)c(F)c(F)c(F)c1F [Compound 8ad]
[4]
  effect on cell growth (rough observations): lethal

## CC1(C)Cc2c(Br)ccc(OC(=O)N3CCCC3)c2O1 [Compound 8ae]
[4]
  effect on cell growth (rough observations): lethal

## CCS(=O)(=O)Nc1cc(-n2nnn(-c3ccc([N+](=O)[O-])cc3)c2=O)c(F)cc1Cl [Compound 8af]
[4]
  effect on cell growth (rough observations): lethal

## CCOC(=O)C(C)Oc1ccc(Cn2c(C)nn(-c3cc(OC)c(Cl)cc3F)c2=O)cc1 (stereo not shown) [Compound 8ag]
[4]
  inhibition at 100 µM: 25%

## C#CCOc1cc(N=C2SCC(=O)N2C)c(F)cc1Cl [Compound 8ah]
[4]
  effect on cell growth (rough observations): lethal

## CC(C)Oc1cc(-n2oc(=O)n(C)c2=O)c(F)cc1Cl [Compound 8ai]
[4]
  inhibition at 100 µM: 50%

## COc1ccc(OC)c(CNC(=O)c2ccc(Cl)cc2)c1 [Compound 8aj]
[4]
  inhibition at 100 µM: 25%

## O=C(Nc1ccc(Cl)cc1)C(F)(F)Sc1ccccc1 [Compound 8ak]
[4]
  inhibition at 100 µM: 50%

## CCOC(=O)C(C)OC(=O)c1cc(Oc2ccc(C(F)(F)F)cc2Cl)ccc1[N+](=O)[O-] (stereo not shown) [Compound 8an]
[4]
  inhibition at 100 µM: 50%

## COC(=O)c1cc(Oc2ccc(Cl)cc2Cl)ccc1[N+](=O)[O-] [Compound 8ap]
[4]
  inhibition at 100 µM: 50%

## O=[N+]([O-])c1ccc(Oc2ccc(Cl)cc2Cl)cc1 [Compound 8ar]
[4]
  inhibition at 100 µM: 25%

## C#CCOc1cc(-n2ncc(=O)n(C)c2=O)c(F)cc1Cl [Compound 8t]
[4]
  inhibition at 100 µM: 50%

## C#CCOc1cc(N2N=CCN(C)C2=O)c(F)cc1Cl [Compound 8u]
[4]
  inhibition at 100 µM: 60%
